These results are taken from patent US5401875A, “2-aminocarboxylic acids and their derivatives, processes for their preparation and their use as medicaments” (Godecke Aktiengesellschaft, priority 1988, dated 1995).

One experiment addresses protein kinase C. As to the kind of experiment: C-kinase: inhibition of protein kinase C, incorporation of phosphorus-32 labelled phosphate in histone. The experiment is classed as biochemical, rat brain or chicken stomach smooth muscle. The settings on record: pH 7.5; 10 μM ATP; 5 nM PKC; 5 min at 30° C. How it is done: The enzyme is purified from rat brain or smooth muscle (chicken stomach). Its activity is determined via the incorporation of phosphorus-32 labelled phosphate in histone. The reaction batch of 200 μL contains the following components: 50 mM HEPES-NaOH, pH 7.5, 5 mM MgCl2, 1 mM DTT, 4 μM free Ca^2+, 10 μM ATP, 1 μg phosphatidylserine, 0.2 μg 1,2-diolein, as well as 40 μg histone H-1. The batch is preincubated for 4 minutes at 30° C. and the reaction then started by addition of 5 nM PKC. After 5 minutes incubation at 30° C. the reaction is stopped with 10% TCA and the samples then filtered off. The phosphate incorporation is determined by means of Cerenkov counting in a scintillation counter.

The target of experiment [1] is T1, cycloAMP-dependent kinase (Homo sapiens, UniProt P17612).
T1 construct: purchased
Kind of experiment: A-kinase: inhibition of cyclic AMP-dependent kinase (commercially available catalytic subunit), phosphorus-32 incorporation into histone. The experiment is classed as biochemical. As to conditions: pH 7.5; 40 μM ATP; histone-H-2B; read-out: Inhibition of cAMP-kinase, IC50-values. Here is the method: The measurement of the activity takes place with the commercially available catalytic subunit of the enzyme. The incorporation of phosphorus-32 labelled phosphate into histone is thereby measured. The reaction batch of 200 μL contains the following components: 50 mM PIPES-NaOH, pH 7.5, 10 mM MgCl2, 1 mM DTT, 40 μM ATP, as well as 50 μg histone-H-2B. The carrying out of the test takes place as in the case of C-kinase.

Experiment [2] concerns the target T2, cycloGMP-dependent kinase (Bos taurus, UniProt P00516).
T2 construct: The enzyme was purified from bovine lung; from tissue; host or cells: bovine lung
T2 sequence (P00516 1-671): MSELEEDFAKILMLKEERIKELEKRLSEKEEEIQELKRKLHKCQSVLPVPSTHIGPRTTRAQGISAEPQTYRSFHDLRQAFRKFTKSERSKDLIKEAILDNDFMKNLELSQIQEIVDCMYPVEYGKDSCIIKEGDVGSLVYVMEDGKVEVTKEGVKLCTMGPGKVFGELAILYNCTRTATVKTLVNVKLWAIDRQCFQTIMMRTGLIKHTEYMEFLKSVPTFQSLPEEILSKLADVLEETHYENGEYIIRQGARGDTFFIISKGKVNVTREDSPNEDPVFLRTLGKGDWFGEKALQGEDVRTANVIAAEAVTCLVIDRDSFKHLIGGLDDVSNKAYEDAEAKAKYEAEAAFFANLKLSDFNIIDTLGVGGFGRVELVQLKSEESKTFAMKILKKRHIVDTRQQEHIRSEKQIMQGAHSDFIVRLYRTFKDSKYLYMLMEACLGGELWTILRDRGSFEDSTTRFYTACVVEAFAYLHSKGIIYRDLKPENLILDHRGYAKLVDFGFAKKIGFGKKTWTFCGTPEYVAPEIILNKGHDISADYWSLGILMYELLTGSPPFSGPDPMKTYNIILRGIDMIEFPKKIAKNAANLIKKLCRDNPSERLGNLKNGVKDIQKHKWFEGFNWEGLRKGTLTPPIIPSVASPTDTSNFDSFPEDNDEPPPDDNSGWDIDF
As to the kind of experiment: G-kinase: inhibition of cyclic GMP-dependent kinase, phosphorus-32 incorporation into histone. The experiment is classed as biochemical, bovine. As to conditions: pH 7.4; 10 μM ATP; 10 μM cGMP; 2.5 nM G-kinase. How it is done:
The enzyme was purified from bovine lung and its activity determined via the incorporation of phosphorus 32-labelled phosphate into histone. In the test batch are contained the following components: 20 mM Tris-HCl, pH 7.4, 5 mM MgCl2, 1 mM DTT, 10 μM ATP, 10 μM cGMP, 40 μg BSA, 2% glycerol, as well as 10 μg histone II-A. The starting of the reaction takes place by addition of 2.5 nM G-kinase. Otherwise, the carrying out of the test takes place as in the case of C-kinase.

Experiment [3] has as its target T3, myosine light chain kinase (Gallus gallus, UniProt P11799).
T3 construct: Not only the enzyme but also the substrate (MLC) are purified from chicken stomach; from tissue; host or cells: chicken stomach
Kind of experiment: MLC-kinase: inhibition of myosine light chain kinase, phosphorus-32 incorporation into MLC. The settings on record: pH 7.2; 250 μM ATP; 25 μM MLC; about 1 nM MLC kinase. The experiment is classed as biochemical, chicken. Here is the method: Not only the enzyme but also the substrate (MLC) are purified from chicken stomach. The activity measurement also takes place via the incorporation of phosphorus-32 labelled phosphate. The reaction batch of 200 μL contains the following components: 50 mM MOPS-NaOH, pH 7.2, 5 mM MgCl2, 100 μM CaCl2, 100 nM calmodulin, 1 mM DTT, 250 μM ATP, as well as 25 μM MLC. The reaction is started by addition of about 1 nM MLC kinase; otherwise, the carrying out of the test takes place as in the case of C-kinase.

Each structure is given as a SMILES string. Counter-ions that a name gives are not always drawn. Bounds are passed on as bounds.

T3 sequence (P11799 935-1906 limits assumed): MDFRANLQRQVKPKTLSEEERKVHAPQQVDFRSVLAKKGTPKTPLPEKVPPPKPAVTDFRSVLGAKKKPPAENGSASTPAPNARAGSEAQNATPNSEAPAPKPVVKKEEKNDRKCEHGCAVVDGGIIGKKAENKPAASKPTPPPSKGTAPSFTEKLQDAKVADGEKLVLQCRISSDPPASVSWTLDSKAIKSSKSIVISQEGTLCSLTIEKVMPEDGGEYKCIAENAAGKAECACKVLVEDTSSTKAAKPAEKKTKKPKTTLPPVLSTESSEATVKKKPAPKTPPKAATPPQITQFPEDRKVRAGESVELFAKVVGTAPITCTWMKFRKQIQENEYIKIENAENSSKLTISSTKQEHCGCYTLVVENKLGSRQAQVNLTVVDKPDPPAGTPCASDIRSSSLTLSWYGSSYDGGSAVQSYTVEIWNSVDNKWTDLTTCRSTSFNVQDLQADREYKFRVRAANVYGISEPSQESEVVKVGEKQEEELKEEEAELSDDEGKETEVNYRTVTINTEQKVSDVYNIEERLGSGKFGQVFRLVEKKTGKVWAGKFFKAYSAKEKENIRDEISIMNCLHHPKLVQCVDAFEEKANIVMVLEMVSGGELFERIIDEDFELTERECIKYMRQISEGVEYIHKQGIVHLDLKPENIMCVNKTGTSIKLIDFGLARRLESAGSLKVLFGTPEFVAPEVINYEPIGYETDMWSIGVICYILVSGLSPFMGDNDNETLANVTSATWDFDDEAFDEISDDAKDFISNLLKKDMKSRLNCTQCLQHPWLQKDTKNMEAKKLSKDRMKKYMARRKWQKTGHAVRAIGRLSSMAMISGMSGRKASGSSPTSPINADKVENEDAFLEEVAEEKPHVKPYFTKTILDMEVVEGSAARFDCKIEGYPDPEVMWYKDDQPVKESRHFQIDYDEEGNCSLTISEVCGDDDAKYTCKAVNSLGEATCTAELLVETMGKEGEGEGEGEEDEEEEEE

The IC50 is the concentration needed to halve the response being measured. With `CCCCCCCCCCCCCCCCCCOCC(CN(C)C)OC(C)=O` (racemic) [A, (±)1-dimethylamino-3-octadecyloxy-2-propyl acetate hydrochloride], the IC50 against protein kinase C was 5 µM; in experiment [1], > 100 µM; in experiment [2], > 100 µM; in experiment [3], > 100 µM.
As for `CCCCCCCCCCOCC(CN1CCC(CN)(c2ccccc2)CC1)OCCCCCCCCCC` (stereo not drawn) [B], the IC50 against protein kinase C worked out at 7 µM; in experiment [1], 29 µM; in experiment [2], 28 µM; in experiment [3], 5.1 µM.
The matching figures for `CCCCCCCCCCCCCCCCCCOCC(O)CN(C)C(CO)C(=O)O` (stereo not drawn) [Example 1, 2-[N-Methyl-N-(3-octadecyloxy-2-hydroxypropyl)]-amino-3-hydroxypropionic acid hydrochloride]: 2.5 µM, > 100 µM, > 100 µM and > 100 µM.
